{"source": "patent US20220160669A1", "about": "“PARENTERAL NUTRITION FORMULATION” (BAXTER INTERNATIONAL INC., priority 2020, published 2022)", "origin": "cited, not measured here", "conditions": "human, in vivo; cited from earlier work", "data": [{"smiles": "CCCC(=O)[O-].[Na+]", "note": "[sodium butyrate]", "values": [{"measurement": "clearance rate", "result": "83 ± 12", "unit": "mL/min/kg"}]}]}
